Reference: US8889711B2, “Pyrazolopyridine derivatives as anticancer agent” (Pierre Fabre Medicament, priority 2009, dated 2014)

The compounds below were run on karpas 299 cells (assay: Measurement of inhibition of cell proliferation (Karpas), ATPlite). Settings: Homo sapiens, KARPAS-299, 72 h.
Type: cell-based
How it was run: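 Karpas 299 cells seeded at 300 000 cells/ml, treated on Day 1 and incubated at 37° C under 5% CO2 for 72 h. Viability measured on Day 4 by ATPlite luminescence of ATP from viable cells. IC50 derived by non-linear sigmoid dose-response regression with variable Hill slope.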

| SMILES | IC50 [µM] |
| --- | --- |
| Cc1cc(-c2nc3[nH]nc(-c4cccs4)c3c(-c3ccc(N4CCNCC4)cc3)c2C#N)c(F)cc1O [Compound 278] | 0.1 to 1 |
| N#Cc1c(-c2cnn[nH]2)nc2[nH]nc(-c3cccs3)c2c1-c1ccc(N2CCNCC2)cc1 [Compound 279] | > 10 |
| N#Cc1c(-c2cscn2)nc2[nH]nc(-c3ccc(N4CCOCC4)cc3)c2c1-c1ccc(N2CCNCC2)cc1 [Compound 281] | 1 to 10 |
| Cc1cc(-c2nc3[nH]nc(-c4cccs4)c3c(-c3ccc(N4CCNCC4)cc3)c2C#N)cc(C)c1O [Compound 283] | 1 to 10 |
| COC(=O)c1c(-c2ccc(O)cc2F)nc2[nH]nc(C)c2c1-c1ccc(N2CCNCC2)cc1 [Compound 284] | < 0.1 |
| N#Cc1c(-c2cncs2)nc2[nH]nc(-c3ccco3)c2c1-c1ccc(N2CCNCC2)cc1 [Compound 285] | 1 to 10 |
| COc1ccc(-c2nc3[nH]ncc3c(-c3ccc(C#CCN)o3)c2C#N)cc1 [Compound 288] | > 10 |
| N#Cc1c(-c2ccc(O)cc2)nc2[nH]ncc2c1-c1ccc(CCCN)o1 [Compound 289] | 0.1 to 1 |
| N#Cc1c(-c2ccc(CO)cc2)nc2[nH]nc(-c3ccc(C(F)(F)F)cc3)c2c1-c1ccc(N2CCNCC2)cc1 [Compound 291] | 1 to 10 |
| COC(=O)c1c(-c2ccc(O)c(C)c2)nc2[nH]nc(C)c2c1-c1ccc(N2CCNCC2)cc1 [Compound 293] | < 0.1 |
| COC(=O)c1c(-c2ccc(O)cc2F)nc2[nH]nc(N)c2c1-c1ccc(N2CCNCC2)cc1 [Compound 295] | 0.1 to 1 |
| CC(C)(C)C(=O)Oc1ccc(-c2nc3[nH]nc(-c4cccs4)c3c(-c3ccc(N4CCNCC4)cc3)c2C#N)c(F)c1 [Compound 296] | 0.1 to 1 |
| N#Cc1c(-c2ccc(OC(=O)c3ccccc3)cc2F)nc2[nH]nc(-c3cccs3)c2c1-c1ccc(N2CCNCC2)cc1 [Compound 297] | 0.1 to 1 |

More lines, now with the values ahead:

| IC50 [µM] | SMILES |
| --- | --- |
| > 10 | Cc1n[nH]c2nc(-c3ccc(O)c(F)c3F)c(C#N)c(-c3ccc(N4CCNCC4)cc3)c12 [Compound 277] |
| 1 to 10 | N#Cc1c(-c2cncs2)nc2[nH]nc(-c3cccs3)c2c1-c1ccc(N2CCNCC2)cc1 [Compound 280] |
| > 10 | N#Cc1c(-c2ccnc(O)c2)nc2[nH]nc(-c3cccs3)c2c1-c1ccc(N2CCNCC2)cc1 [Compound 282] |
| 0.1 to 1 | Cc1cc(-c2nc3[nH]nc(C)c3c(-c3ccc(N4CCNCC4)cc3)c2C#N)c(F)cc1O [Compound 286] |
| 1 to 10 | N#Cc1c(-c2ccc(O)cc2F)nc2[nH]ncc2c1-c1ccc(-c2ccc(S(N)(=O)=O)cc2)o1 [Compound 287] |
| 1 to 10 | N#Cc1c(-c2ccc(CCl)cc2)nc2[nH]nc(-c3ccc(C(F)(F)F)cc3)c2c1-c1ccc(N2CCNCC2)cc1 [Compound 290] |
| 0.1 to 1 | Cc1cc(-c2nc3[nH]nc(N)c3c(-c3ccc(N4CCNCC4)cc3)c2C#N)c(F)cc1O [Compound 294] |
| > 10 | CC(=O)Oc1ccc(-c2nc3[nH]nc(-c4cccs4)c3c(-c3ccc(N4CCNCC4)cc3)c2C#N)c(F)c1 [Compound 298] |
| 1 to 10 | CN(C)CCN1CCN(c2ccc(-c3c(C#N)c(-c4ccc(O)cc4)nc4[nH]nc(-c5ccc(Cl)cc5)c34)c(F)c2)CC1 [Compound 299] |
| < 0.1 | COC(=O)c1c(-c2ccc(OC(=O)C(C)(C)C)cc2F)nc2[nH]nc(C)c2c1-c1ccc(N2CCNCC2)cc1 [Compound 300] |
| > 10 | CC(C)(C)C(=O)Oc1ccc(-c2nc3[nH]nc(N)c3c(-c3ccc(N4CCNCC4)cc3)c2C#N)c(F)c1 [Compound 301] |

The compounds below were run against ALK kinase (Homo sapiens, UniProt Q9UM73) (assay: Test to measure ALK kinase inhibition (GST-PLCγ1 substrate, anti-phosphotyrosine ELISA, luminescence)). Settings: ALK kinase 180 ng/ml, 250 μM ATP, 30 minutes at 30° C.
ALK kinase, sequence (Q9UM73 19-1620): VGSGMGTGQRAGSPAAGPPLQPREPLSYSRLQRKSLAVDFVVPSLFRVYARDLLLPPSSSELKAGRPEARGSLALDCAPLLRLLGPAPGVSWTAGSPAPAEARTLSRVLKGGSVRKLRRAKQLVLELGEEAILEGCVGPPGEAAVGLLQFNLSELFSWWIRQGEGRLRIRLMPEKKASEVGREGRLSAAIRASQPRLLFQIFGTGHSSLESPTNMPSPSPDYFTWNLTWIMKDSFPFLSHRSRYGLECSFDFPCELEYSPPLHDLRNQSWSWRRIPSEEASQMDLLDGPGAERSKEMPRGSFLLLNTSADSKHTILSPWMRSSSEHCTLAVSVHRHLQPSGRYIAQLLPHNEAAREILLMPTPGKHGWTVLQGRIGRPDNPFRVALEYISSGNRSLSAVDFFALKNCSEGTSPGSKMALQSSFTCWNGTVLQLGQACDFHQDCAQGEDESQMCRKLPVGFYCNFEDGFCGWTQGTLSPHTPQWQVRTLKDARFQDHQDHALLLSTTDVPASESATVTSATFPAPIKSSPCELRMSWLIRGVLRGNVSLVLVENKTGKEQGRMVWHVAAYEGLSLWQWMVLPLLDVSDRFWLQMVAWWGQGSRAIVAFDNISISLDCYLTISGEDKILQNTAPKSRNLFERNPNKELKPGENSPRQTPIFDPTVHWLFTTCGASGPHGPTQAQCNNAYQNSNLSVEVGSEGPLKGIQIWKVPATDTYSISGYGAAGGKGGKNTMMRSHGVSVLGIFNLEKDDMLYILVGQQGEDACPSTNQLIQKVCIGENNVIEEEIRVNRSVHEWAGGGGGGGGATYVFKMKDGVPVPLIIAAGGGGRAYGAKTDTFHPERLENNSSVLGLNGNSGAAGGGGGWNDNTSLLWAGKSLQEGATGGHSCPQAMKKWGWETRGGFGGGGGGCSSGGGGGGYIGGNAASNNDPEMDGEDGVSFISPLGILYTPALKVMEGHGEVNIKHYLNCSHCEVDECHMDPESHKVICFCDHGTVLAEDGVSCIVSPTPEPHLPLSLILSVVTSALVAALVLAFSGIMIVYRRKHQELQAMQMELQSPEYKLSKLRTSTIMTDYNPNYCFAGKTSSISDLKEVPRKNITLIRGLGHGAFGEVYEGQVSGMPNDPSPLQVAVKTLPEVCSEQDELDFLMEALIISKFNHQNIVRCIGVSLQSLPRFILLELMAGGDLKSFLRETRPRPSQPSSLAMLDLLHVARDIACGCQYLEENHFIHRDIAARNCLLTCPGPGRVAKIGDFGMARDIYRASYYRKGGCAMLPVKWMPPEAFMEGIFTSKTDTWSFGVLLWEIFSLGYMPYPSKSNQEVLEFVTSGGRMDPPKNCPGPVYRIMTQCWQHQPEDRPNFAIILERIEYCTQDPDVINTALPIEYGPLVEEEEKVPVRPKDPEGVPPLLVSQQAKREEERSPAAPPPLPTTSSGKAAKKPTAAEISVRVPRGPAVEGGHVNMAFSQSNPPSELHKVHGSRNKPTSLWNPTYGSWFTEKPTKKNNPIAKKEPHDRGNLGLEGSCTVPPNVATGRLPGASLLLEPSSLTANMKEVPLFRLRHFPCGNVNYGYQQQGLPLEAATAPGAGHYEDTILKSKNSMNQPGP
Type: biochemical
How it was run: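 GST-PLCγ1 substrate-coated plate; ALK at 180 ng/ml in Tris pH 7.5 buffer with MgCl2, DTT, β-glycerophosphate, orthovanadate and 250 μM ATP, 30 min at 30 °C, inhibitor typically 30 μM to 10 nM. Phosphotyrosine detected with HRP anti-phosphotyrosine antibody, luminescence read-out.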

| SMILES | IC50 [µM] |
| --- | --- |
| Cc1cc(-c2nc3[nH]nc(-c4cccs4)c3c(-c3ccc(N4CCNCC4)cc3)c2C#N)c(F)cc1O [Compound 278] | < 0.1 |
| N#Cc1c(-c2cnn[nH]2)nc2[nH]nc(-c3cccs3)c2c1-c1ccc(N2CCNCC2)cc1 [Compound 279] | 1 to 10 |
| N#Cc1c(-c2cscn2)nc2[nH]nc(-c3ccc(N4CCOCC4)cc3)c2c1-c1ccc(N2CCNCC2)cc1 [Compound 281] | 1 to 10 |
| Cc1cc(-c2nc3[nH]nc(-c4cccs4)c3c(-c3ccc(N4CCNCC4)cc3)c2C#N)cc(C)c1O [Compound 283] | 0.1 to 1 |
| COC(=O)c1c(-c2ccc(O)cc2F)nc2[nH]nc(C)c2c1-c1ccc(N2CCNCC2)cc1 [Compound 284] | < 0.1 |
| N#Cc1c(-c2cncs2)nc2[nH]nc(-c3ccco3)c2c1-c1ccc(N2CCNCC2)cc1 [Compound 285] | < 0.1 |
| COc1ccc(-c2nc3[nH]ncc3c(-c3ccc(C#CCN)o3)c2C#N)cc1 [Compound 288] | 1 to 10 |
| N#Cc1c(-c2ccc(O)cc2)nc2[nH]ncc2c1-c1ccc(CCCN)o1 [Compound 289] | < 0.1 |
| N#Cc1c(-c2ccc(CO)cc2)nc2[nH]nc(-c3ccc(C(F)(F)F)cc3)c2c1-c1ccc(N2CCNCC2)cc1 [Compound 291] | 1 to 10 |
| COC(=O)c1c(-c2ccc(O)c(C)c2)nc2[nH]nc(C)c2c1-c1ccc(N2CCNCC2)cc1 [Compound 293] | < 0.1 |
| COC(=O)c1c(-c2ccc(O)cc2F)nc2[nH]nc(N)c2c1-c1ccc(N2CCNCC2)cc1 [Compound 295] | < 0.1 |
| CC(C)(C)C(=O)Oc1ccc(-c2nc3[nH]nc(-c4cccs4)c3c(-c3ccc(N4CCNCC4)cc3)c2C#N)c(F)c1 [Compound 296] | 0.1 to 1 |
| N#Cc1c(-c2ccc(OC(=O)c3ccccc3)cc2F)nc2[nH]nc(-c3cccs3)c2c1-c1ccc(N2CCNCC2)cc1 [Compound 297] | 0.1 to 1 |

Other lines, results leading:

| IC50 [µM] | SMILES |
| --- | --- |
| 0.1 to 1 | Cc1n[nH]c2nc(-c3ccc(O)c(F)c3F)c(C#N)c(-c3ccc(N4CCNCC4)cc3)c12 [Compound 277] |
| 1 to 10 | N#Cc1c(-c2cncs2)nc2[nH]nc(-c3cccs3)c2c1-c1ccc(N2CCNCC2)cc1 [Compound 280] |
| 1 to 10 | N#Cc1c(-c2ccnc(O)c2)nc2[nH]nc(-c3cccs3)c2c1-c1ccc(N2CCNCC2)cc1 [Compound 282] |
| < 0.1 | Cc1cc(-c2nc3[nH]nc(C)c3c(-c3ccc(N4CCNCC4)cc3)c2C#N)c(F)cc1O [Compound 286] |
| < 0.1 | N#Cc1c(-c2ccc(O)cc2F)nc2[nH]ncc2c1-c1ccc(-c2ccc(S(N)(=O)=O)cc2)o1 [Compound 287] |
| 1 to 10 | N#Cc1c(-c2ccc(CCl)cc2)nc2[nH]nc(-c3ccc(C(F)(F)F)cc3)c2c1-c1ccc(N2CCNCC2)cc1 [Compound 290] |
| < 0.1 | Cc1cc(-c2nc3[nH]nc(N)c3c(-c3ccc(N4CCNCC4)cc3)c2C#N)c(F)cc1O [Compound 294] |
| 0.1 to 1 | CC(=O)Oc1ccc(-c2nc3[nH]nc(-c4cccs4)c3c(-c3ccc(N4CCNCC4)cc3)c2C#N)c(F)c1 [Compound 298] |
| < 0.1 | CN(C)CCN1CCN(c2ccc(-c3c(C#N)c(-c4ccc(O)cc4)nc4[nH]nc(-c5ccc(Cl)cc5)c34)c(F)c2)CC1 [Compound 299] |
| < 0.1 | COC(=O)c1c(-c2ccc(OC(=O)C(C)(C)C)cc2F)nc2[nH]nc(C)c2c1-c1ccc(N2CCNCC2)cc1 [Compound 300] |
| 0.1 to 1 | CC(C)(C)C(=O)Oc1ccc(-c2nc3[nH]nc(N)c3c(-c3ccc(N4CCNCC4)cc3)c2C#N)c(F)c1 [Compound 301] |
